SMILES strings stand for the structures. Where “and” joins values, the source holds several entries; their conditions need not be identical. Equal entries are not always repeated. Toxic doses and inconclusive results are not listed.

In the experiment the test system is CD2F1 mice, L1210 leukemia ip, survival T/C. The experiment can be described thus: NCI In Vivo Anticancer Drug Screen. Data for tumor model L1210 Leukemia (intraperitoneal) in CD2F1 (CDF1) mice. As to conditions: higher = longer survival. The procedure, abridged: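 Ratio T/C, where T is the treated-group value and C the vehicle-dosed control value, from mice implanted with a transplantable tumor.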

[1] abbreviates: endpoint: mean survival time, dose: 100.0 mg/kg/injection, schedule: Q01DX009 (ip), vehicle: saline with Tween-80.
[2] abbreviates: endpoint: mean survival time, dose: 200.0 mg/kg/injection, schedule: Q01DX009 (ip), vehicle: saline with Tween-80.
Where [3] appears, read: endpoint: mean survival time, dose: 400.0 mg/kg/injection, schedule: Q01DX009 (ip), vehicle: saline with Tween-80.
Setting [4] is: endpoint: mean survival time, dose: 100.0 mg/kg/injection, schedule: Q01DX001 (ip), vehicle: saline with Tween-80.
[5] abbreviates: endpoint: mean survival time, dose: 200.0 mg/kg/injection, schedule: Q01DX001 (ip), vehicle: saline with Tween-80.
Where [6] appears, read: endpoint: mean survival time, dose: 400.0 mg/kg/injection, schedule: Q01DX001 (ip), vehicle: saline with Tween-80.

For `OC1CC2CCC(C1)N2CCCN1c2ccccc2Sc2ccc(Cl)cc21` (stereo unspecified), the T/C (endpoint: mean survival time, dose: 7.5 mg/kg/injection, schedule: Q01DX009 (ip), vehicle: saline) is 91 % of control; the T/C (endpoint: mean survival time, dose: 15.0 mg/kg/injection, schedule: Q01DX009 (ip), vehicle: saline) was 98 % of control; the T/C (endpoint: mean survival time, dose: 18.0 mg/kg/injection, schedule: Q04DX003 (ip), vehicle: saline with Tween-80) was 99 % of control; the T/C (endpoint: mean survival time, dose: 27.0 mg/kg/injection, schedule: Q04DX003 (ip), vehicle: saline with Tween-80) was 94 % of control; the T/C (endpoint: mean survival time, dose: 30.0 mg/kg/injection, schedule: Q01DX009 (ip), vehicle: saline) is 109 % of control; the T/C (endpoint: mean survival time, dose: 40.0 mg/kg/injection, schedule: Q04DX003 (ip), vehicle: saline with Tween-80) is 103 % of control. Besides, for the setting “endpoint: mean survival time, dose: 60.0 mg/kg/injection, schedule: Q04DX003 (ip), vehicle: saline with Tween-80”, the T/C was 123 % of control.

As to `S=C(S)Nc1cccc2ccccc12`, the T/C was 93 % of control under setting [1], 97 % of control under setting [2] and 93 % of control under setting [3].

Take `O=P1(NCCCl)OC(c2ccccc2)=CCN1CCCl` (stereo unspecified): the T/C is 102 % of control (endpoint: median survival time, dose: 31.25 mg/kg/injection, schedule: Q01DX001 (ip), vehicle: distilled water + Tween-80); 97 % of control (endpoint: median survival time, dose: 62.5 mg/kg/injection, schedule: Q01DX001 (ip), vehicle: distilled water + Tween-80); 97 % of control (endpoint: median survival time, dose: 125.0 mg/kg/injection, schedule: Q01DX001 (ip), vehicle: distilled water + Tween-80); 101 % of control (endpoint: median survival time, dose: 250.0 mg/kg/injection, schedule: Q01DX001 (ip), vehicle: distilled water + Tween-80); 93 % of control (endpoint: median survival time, dose: 500.0 mg/kg/injection, schedule: Q01DX001 (ip), vehicle: distilled water + Tween-80).

`COc1cccc2c1C(=O)c1c(OC)c(CBr)cc(OC)c1C2=O`: the T/C was 96 % of control (endpoint: mean survival time, dose: 12.5 mg/kg/injection, schedule: Q01DX005 (ip), vehicle: other); 101 % of control (endpoint: mean survival time, dose: 25.0 mg/kg/injection, schedule: Q01DX005 (ip), vehicle: other); 96 % of control (endpoint: mean survival time, dose: 50.0 mg/kg/injection, schedule: Q01DX005 (ip), vehicle: other); 86 % of control (endpoint: mean survival time, dose: 100.0 mg/kg/injection, schedule: Q01DX005 (ip), vehicle: other).

For `O=C(O)C(Br)CCC(Br)C(=O)O` (stereo unspecified), the T/C runs as follows: (endpoint: mean survival time, dose: 100.0 mg/kg/injection, schedule: Q01DX001 (ip), vehicle: other) 102 % of control; (endpoint: mean survival time, dose: 200.0 mg/kg/injection, schedule: Q01DX001 (ip), vehicle: other) 102 % of control; (endpoint: mean survival time, dose: 400.0 mg/kg/injection, schedule: Q01DX001 (ip), vehicle: other) 97 % of control.

With `COc1ccccc1N=Nc1c(O)n(-c2ccc(Br)cc2)c(=S)n(-c2ccccc2)c1=O`, the T/C under setting [4] is 93 % of control, the T/C under setting [5] was 93 % of control and the T/C under setting [6] is 87 % of control.

As to `CC(C)(O)C(=NCc1ccccc1)c1ccccc1`, the T/C (endpoint: mean survival time, dose: 100.0 mg/kg/injection, schedule: Q01DX001 (ip), vehicle: saline) is 102 % of control; the T/C (endpoint: mean survival time, dose: 200.0 mg/kg/injection, schedule: Q01DX001 (ip), vehicle: saline) was 93 % of control; the T/C (endpoint: mean survival time, dose: 400.0 mg/kg/injection, schedule: Q01DX001 (ip), vehicle: saline) is 104 % of control.

Regarding `CC(CC(=O)O)C(NC(=O)OCc1ccccc1)C(=O)O` (stereo unspecified), the T/C (endpoint: mean survival time, dose: 75.0 mg/kg/injection, schedule: Q04DX003 (ip), vehicle: saline) was 101 % of control; the T/C (endpoint: mean survival time, dose: 150.0 mg/kg/injection, schedule: Q04DX003 (ip), vehicle: saline) is 95 % of control; the T/C (endpoint: mean survival time, dose: 300.0 mg/kg/injection, schedule: Q04DX003 (ip), vehicle: saline) was 95 % of control.

For the molecule `OCC1OC(O)C(F)C(O)C1O` (stereo unspecified), the T/C was 108 % of control (endpoint: mean survival time, dose: 50.0 mg/kg/injection, schedule: Q04DX003 (ip), vehicle: saline); 104 % of control (endpoint: mean survival time, dose: 100.0 mg/kg/injection, schedule: Q04DX003 (ip), vehicle: saline); 101 % of control (endpoint: mean survival time, dose: 200.0 mg/kg/injection, schedule: Q04DX003 (ip), vehicle: saline); 101 % of control (endpoint: mean survival time, dose: 400.0 mg/kg/injection, schedule: Q04DX003 (ip), vehicle: saline).

`CC1OC(Sc2ncnc3nc[nH]c23)C(O)C(O)C1O` (stereo unspecified): the T/C reads like this: (endpoint: median survival time, dose: 12.5 mg/kg/injection, schedule: Q01DX005 (ip), vehicle: saline with Tween-80) 105 % of control; (endpoint: median survival time, dose: 25.0 mg/kg/injection, schedule: Q01DX005 (ip), vehicle: saline with Tween-80) 107 % of control; (endpoint: median survival time, dose: 50.0 mg/kg/injection, schedule: Q01DX005 (ip), vehicle: saline with Tween-80) 103 % of control and 109 % of control; (endpoint: median survival time, dose: 100.0 mg/kg/injection, schedule: Q01DX005 (ip), vehicle: saline with Tween-80) 122 % of control; (endpoint: median survival time, dose: 200.0 mg/kg/injection, schedule: Q01DX005 (ip), vehicle: saline with Tween-80) 150 % of control and 151 % of control; (endpoint: median survival time, dose: 400.0 mg/kg/injection, schedule: Q01DX005 (ip), vehicle: saline with Tween-80) 170 % of control.

On to `CC(=O)OCC1OC(c2nn(C(C)=O)c(C(N)=O)c2O)C(OC(C)=O)C1OC(C)=O` (stereo unspecified), for which the T/C runs as follows: (endpoint: median survival time, dose: 25.0 mg/kg/injection, schedule: Q01DX005 (ip), vehicle: saline) 153 % of control; (endpoint: median survival time, dose: 50.0 mg/kg/injection, schedule: Q01DX005 (ip), vehicle: saline) 166 % of control; (endpoint: median survival time, dose: 100.0 mg/kg/injection, schedule: Q01DX005 (ip), vehicle: saline) 96 % of control.

As for `CNC(=O)Oc1cccc(NC(=O)OCCC(C)C)c1`, the T/C was 96 % of control under setting [4], 93 % of control under setting [5] and 96 % of control under setting [6].

Take `N#Cc1n[nH]c(C2OC(CO)C(O)C2O)c1O` (stereo unspecified): the T/C by setting is: (endpoint: median survival time, dose: 9.38 mg/kg/injection, schedule: Q01DX005 (ip), vehicle: water) 104 % of control; (endpoint: median survival time, dose: 18.75 mg/kg/injection, schedule: Q01DX005 (ip), vehicle: water) 106 % of control; (endpoint: median survival time, dose: 39.5 mg/kg/injection, schedule: Q01DX005 (ip), vehicle: water) 109 % of control; (endpoint: median survival time, dose: 79.0 mg/kg/injection, schedule: Q01DX005 (ip), vehicle: water) 109 % of control; (endpoint: median survival time, dose: 158.0 mg/kg/injection, schedule: Q01DX005 (ip), vehicle: water) 109 % of control.

Turning to `CC1=CC=CC2=NC(=O)CCN12`, the T/C under setting [1] was 104 % of control; the T/C (endpoint: mean survival time, dose: 100.0 mg/kg/injection, schedule: Q04DX003 (ip), vehicle: saline with Tween-80) was 105 % of control; the T/C under setting [2] was 106 % of control; the T/C (endpoint: mean survival time, dose: 200.0 mg/kg/injection, schedule: Q04DX003 (ip), vehicle: saline with Tween-80) is 102 % of control; the T/C under setting [3] is 103 % of control; the T/C (endpoint: mean survival time, dose: 400.0 mg/kg/injection, schedule: Q04DX003 (ip), vehicle: saline with Tween-80) was 103 % of control.

For `COc1cc2c(c(OC)c1O)-c1ccc(OC)c(=O)cc1[C@@H](NC(=O)C(F)(F)F)CC2`, the T/C runs as follows: (endpoint: median survival time, dose: 0.62 mg/kg/injection, schedule: Q01DX009 (ip), vehicle: Klucel (hydroxypropylcellulose) (HPC)) 118 % of control; (endpoint: median survival time, dose: 1.25 mg/kg/injection, schedule: Q01DX009 (ip), vehicle: Klucel (hydroxypropylcellulose) (HPC)) 123 % of control; (endpoint: median survival time, dose: 2.5 mg/kg/injection, schedule: Q01DX005 (ip), vehicle: Klucel (hydroxypropylcellulose) (HPC)) 164 % of control; (endpoint: median survival time, dose: 3.0 mg/kg/injection, schedule: Q01DX005 (ip), vehicle: Klucel (hydroxypropylcellulose) (HPC)) 175 % of control; (endpoint: median survival time, dose: 5.0 mg/kg/injection, schedule: Q01DX005 (ip), vehicle: Klucel (hydroxypropylcellulose) (HPC)) 171 % of control; (endpoint: median survival time, dose: 8.32 mg/kg/injection, schedule: Q01DX005 (ip), vehicle: Klucel (hydroxypropylcellulose) (HPC)) 167 % of control. Also, the T/C was 160 % of control (endpoint: median survival time, dose: 10.0 mg/kg/injection, schedule: Q01DX005 (ip), vehicle: Klucel (hydroxypropylcellulose) (HPC)) and 164 % of control (endpoint: median survival time, dose: 13.88 mg/kg/injection, schedule: Q01DX005 (ip), vehicle: Klucel (hydroxypropylcellulose) (HPC)).

For the origin of these results see PubChem BioAssay AID256 (DTP/NCI, 2004).
